According to patent publication US20230416256A1, “SMALL MOLECULE INHIBITORS OF NF-kB INDUCING KINASE” (Janssen Pharmaceutica NV, priority 2020, published 2023):
Read-outs that look alike come from different tables or passages of the source.

What was measured:
[1] = tested on: p-IKKα levels in L363 (NIK translocated multiple myeloma) cells; assay: Effect of compounds on p-IKKα levels in L363 cells (AlphaLISA SureFire Ultra); assay type: cell-based, human; details: 10 μM MG132, 6 h, average of values obtained, read-out: Assay 2 IC50
In short: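 L363 cells were BAFF-stimulated overnight (250 ng/ml) in DMEM/0.5% BSA, then exposed to an 11-point 1:3 compound series (0.3% DMSO) with BAFF and 10 μM MG132 for 6 h at 37 °C. p-IKKα (Ser176/180) was measured by AlphaLISA SureFire Ultra. IC50 was fitted from % inhibition normalized to stimulated and unstimulated controls.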

[2] = biological target: recombinant human NF-kappaB-inducing kinase (NIK/MAP3K14) (Homo sapiens, UniProt Q99558); assay: Inhibition of auto-phosphorylation of recombinant human NIK/MAP3K14 activity (AlphaScreen); assay type: biochemical; details: GST-tagged NIK/MAP3K14 1 nM, 5 μM ATP, 2 h at 25° C.; average of values obtained
In short: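 GST-tagged NIK (1 nM) auto-phosphorylated for 2 h at 25 °C with 5 μM ATP in 50 mM Tris pH 7.5, 5 mM MgCl2, 0.7% DMSO. Phospho-Ser176/180 was detected by AlphaScreen using an anti-phospho-IKK antibody. IC50 came from sigmoidal fits of % inhibition versus high (full activity) and low (no ATP) controls.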

[3] = Homo sapiens, L-363, 6 h, 250 ng/ml BAFF stimulated
[4] = Homo sapiens, L-363, 250 ng/ml BAFF stimulated

Chain of recombinant human NF-kappaB-inducing kinase (NIK/MAP3K14) (Q99558 whole entry): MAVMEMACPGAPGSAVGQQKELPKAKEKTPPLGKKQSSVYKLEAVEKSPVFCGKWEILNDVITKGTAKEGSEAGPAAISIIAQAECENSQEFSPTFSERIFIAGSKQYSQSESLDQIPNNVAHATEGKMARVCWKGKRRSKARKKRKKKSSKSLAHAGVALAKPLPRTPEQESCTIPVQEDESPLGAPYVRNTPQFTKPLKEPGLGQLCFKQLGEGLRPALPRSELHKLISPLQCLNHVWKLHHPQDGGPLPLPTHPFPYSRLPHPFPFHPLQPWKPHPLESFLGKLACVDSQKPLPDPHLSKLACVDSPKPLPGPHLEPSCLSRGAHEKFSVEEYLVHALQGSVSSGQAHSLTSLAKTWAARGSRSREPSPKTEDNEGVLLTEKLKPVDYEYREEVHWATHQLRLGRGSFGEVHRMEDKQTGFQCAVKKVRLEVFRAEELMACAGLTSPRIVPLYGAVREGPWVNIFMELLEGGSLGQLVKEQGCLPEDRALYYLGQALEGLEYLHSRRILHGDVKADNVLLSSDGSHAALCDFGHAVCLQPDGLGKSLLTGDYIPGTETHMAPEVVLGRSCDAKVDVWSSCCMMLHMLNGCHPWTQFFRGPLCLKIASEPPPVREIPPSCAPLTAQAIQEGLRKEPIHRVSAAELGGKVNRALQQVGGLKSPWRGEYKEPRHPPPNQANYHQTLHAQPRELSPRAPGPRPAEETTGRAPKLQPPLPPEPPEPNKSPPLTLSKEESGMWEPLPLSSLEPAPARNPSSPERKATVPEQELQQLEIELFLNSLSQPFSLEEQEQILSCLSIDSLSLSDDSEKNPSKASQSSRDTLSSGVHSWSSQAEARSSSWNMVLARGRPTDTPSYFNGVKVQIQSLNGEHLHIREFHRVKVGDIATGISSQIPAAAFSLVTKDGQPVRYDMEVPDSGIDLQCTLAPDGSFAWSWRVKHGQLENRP

Row | SMILES | IC50 [1, 3] | IC50 [2] | IC50 ([1]; 250 ng/ml BAFF stimulated) | IC50 [1, 4]
1 | Cc1cnc2[nH]cc(-c3nc(-c4cccc([C@]5(O)CCn6ccnc65)c4)cs3)c2n1 [Example 81, (R)-7-(3-(2-(2-Methyl-5H-pyrrolo[2,3-b]pyrazin-7-yl)thiazol-4-yl)phenyl)-6,7-dihydro-5H-pyrrolo[1,2-a]imidazol-7-ol] | ≤ 100 nM | ≤ 100 nM | – | –
2 | Cc1cnc2[nH]cc(-c3nc(-c4cccc([C@@]5(O)CCn6ccnc65)c4)cs3)c2n1 [Example 82, (S)-7-(3-(2-(2-Methyl-5H-pyrrolo[2,3-b]pyrazin-7-yl)thiazol-4-yl)phenyl)-6,7-dihydro-5H-pyrrolo[1,2-a]imidazol-7-ol] | > 500 nM | 100 to 500 nM | – | –
3 | Cc1cnc2c(-c3nc(-c4cccc([C@]5(O)CCn6ccnc65)c4)cs3)c[nH]c2n1 [Example 83, (R)-7-(3-(2-(3-Methyl-5H-pyrrolo[2,3-b]pyrazin-7-yl)thiazol-4-yl)phenyl)-6,7-dihydro-5H-pyrrolo[1,2-a]imidazol-7-ol] | 100 to 500 nM | ≤ 100 nM | – | –
4 | O[C@]1(c2cccc(-c3nc(-c4c[nH]c5ncccc45)cs3)c2)CCn2ccnc21 [Example 84, (S)-7-(3-(4-(1H-Pyrrolo[2,3-b]pyridin-3-yl)thiazol-2-yl)phenyl)-6,7-dihydro-5H-pyrrolo[1,2-a]imidazol-7-ol] | > 500 nM | 100 to 500 nM | – | –
5 | O[C@@]1(c2cccc(-c3csc(-c4c[nH]c5ncccc45)n3)c2)COc2cccnc21 [Example 85, (R)-3-(3-(2-(1H-Pyrrolo[2,3-b]pyridin-3-yl)thiazol-4-yl)phenyl)-2,3-dihydrofuro[3,2-b]pyridin-3-ol] | – | > 500 nM | > 500 nM | –
6 | O[C@@]1(c2cccc(-c3csc(-c4c[nH]c5nccnc45)n3)c2)COc2cccnc21 [Example 86, (R)-3-(3-(2-(5H-Pyrrolo[2,3-b]pyrazin-7-yl)thiazol-4-yl)phenyl)-2,3-dihydrofuro[3,2-b]pyridin-3-ol] | – | > 500 nM | > 500 nM | –
7 | Cc1ccnc2[nH]cc(-c3nc(-c4cccc([C@]5(O)CCn6ccnc65)c4)cs3)c12 [Example 87, (R)-7-(3-(2-(4-Methyl-1H-pyrrolo[2,3-b]pyridin-3-yl)thiazol-4-yl)phenyl)-6,7-dihydro-5H-pyrrolo[1,2-a]imidazol-7-ol] | > 500 nM | ≤ 100 nM | – | –
8 | O[C@@]1(c2cccc(-c3csc(-c4c[nH]c5nnccc45)n3)c2)CCn2ccnc21 [Example 88, (R)-7-(3-(2-(7H-pyrrolo[2,3-c]pyridazin-5-yl)thiazol-4-yl)phenyl)-6,7-dihydro-5H-pyrrolo[1,2-a]imidazol-7-ol] | > 500 nM | ≤ 100 nM | – | –
9 | CN1C(=O)[C@@](O)(c2cccc(-c3csc(-c4c[nH]c5ncccc45)n3)c2)c2ncccc21 [Example 91, (R)-3-(3-(2-(1H-Pyrrolo[2,3-b]pyridin-3-yl)thiazol-4-yl)phenyl)-3-hydroxy-1-methyl-1,3-dihydro-2H-pyrrolo[3,2-b]pyridin-2-one] | – | > 500 nM | – | > 500 nM
10 | CN1C(=O)[C@](O)(c2cccc(-c3csc(-c4c[nH]c5ncccc45)n3)c2)c2ncccc21 [Example 92, (S)-3-(3-(2-(1H-Pyrrolo[2,3-b]pyridin-3-yl)thiazol-4-yl)phenyl)-3-hydroxy-1-methyl-1,3-dihydro-2H-pyrrolo[3,2-b]pyridin-2-one] | – | ≤ 100 nM | – | > 500 nM
11 | CN1CC[C@@](O)(c2cccc(-c3coc(-c4c[nH]c5ncccc45)c3)c2)C1=O [Example 93, (R)-3-(3-(5-(1H-Pyrrolo[2,3-b]pyridin-3-yl)furan-3-yl)phenyl)-3-hydroxy-1-methylpyrrolidin-2-one] | – | ≤ 100 nM | – | > 500 nM
12 | CN1CC[C@@](O)(c2cccc(-c3csc(-c4c[nH]c5ncc(F)c(F)c45)n3)c2)C1=O [Example 94, (R)-3-(3-(2-(4,5-Difluoro-1H-pyrrolo[2,3-b]pyridin-3-yl)thiazol-4-yl)phenyl)-3-hydroxy-1-methylpyrrolidin-2-one] | – | ≤ 100 nM | – | > 500 nM
13 | CN1CC[C@@](O)(c2cccc(-c3csc(-c4c[nH]c5ncc(Cl)c(F)c45)n3)c2)C1=O [Example 95, (R)-3-(3-(2-(5-Chloro-4-fluoro-1H-pyrrolo[2,3-b]pyridin-3-yl)thiazol-4-yl)phenyl)-3-hydroxy-1-methylpyrrolidin-2-one] | – | ≤ 100 nM | – | > 500 nM
14 | O[C@@]1(c2cccc(-c3csc(-c4c[nH]c5ncc(F)c(F)c45)n3)c2)CCn2ccnc21 [Example 96, (R)-7-(3-(2-(4,5-Difluoro-1H-pyrrolo[2,3-b]pyridin-3-yl)thiazol-4-yl)phenyl)-6,7-dihydro-5H-pyrrolo[1,2-a]imidazol-7-ol] | > 500 nM | ≤ 100 nM | – | –
15 | O[C@@]1(c2cccc(-c3csc(-c4c[nH]c5ncc(Cl)c(F)c45)n3)c2)CCn2ccnc21 [Example 97, (R)-7-(3-(2-(5-Chloro-4-fluoro-1H-pyrrolo[2,3-b]pyridin-3-yl)thiazol-4-yl)phenyl)-6,7-dihydro-5H-pyrrolo[1,2-a]imidazol-7-ol] | 100 to 500 nM | ≤ 100 nM | – | –
16 | CN1CC[C@@](O)(c2cccc(-c3nc(-c4c[nH]c5ncccc45)sc3C#N)c2)C1=O [Example 98, (R)-4-(3-(3-Hydroxy-1-methyl-2-oxopyrrolidin-3-yl)phenyl)-2-(1H-pyrrolo[2,3-b]pyridin-3-yl)thiazole-5-carbonitrile] | – | > 500 nM | – | > 500 nM
17 | CN1CC[C@@](O)(c2cccc(-c3csc(-c4n[nH]c5ncccc45)n3)c2)C1=O [Example 100, (R)-3-(3-(2-(1H-Pyrazolo[3,4-b]pyridin-3-yl)thiazol-4-yl)phenyl)-3-hydroxy-1-methylpyrrolidin-2-one] | – | > 500 nM | – | > 500 nM
18 | C[C@@]1(O)C[C@@](O)(c2cccc(-c3csc(-c4c[nH]c5ncccc45)n3)c2)c2ncccc21 [Example 106, (5R,7R)-7-(3-(2-(1H-Pyrrolo[2,3-b]pyridin-3-yl)thiazol-4-yl)phenyl)-5-methyl-6,7-dihydro-5H-cyclopenta[b]pyridine-5,7-diol] | > 500 nM | > 500 nM | – | –
19 | CN1CC[C@@](O)(c2cccc(-c3csc(-c4c(F)[nH]c5ncc(F)cc45)n3)c2)C1=O [Example 110, (R)-3-(3-(2-(2,5-Difluoro-1H-pyrrolo[2,3-b]pyridin-3-yl)thiazol-4-yl)phenyl)-3-hydroxy-1-methylpyrrolidin-2-one] | – | 100 to 500 nM | – | > 500 nM
20 | CN1CC[C@@](O)(c2cccc(-c3csc(-n4ccc5nc(N)ccc54)n3)c2)C1=O [Example 112, (R)-3-(3-(2-(5-Amino-1H-pyrrolo[3,2-b]pyridin-1-yl)thiazol-4-yl)phenyl)-3-hydroxy-1-methylpyrrolidin-2-one] | – | > 500 nM | – | > 500 nM
21 | Cc1ccc2[nH]cc(-c3nc(-c4cccc([C@]5(O)CCN(C)C5=O)c4)cs3)c2n1 [Example 113, (R)-3-Hydroxy-1-methyl-3-(3-(2-(5-methyl-1H-pyrrolo[3,2-b]pyridin-3-yl)thiazol-4-yl)phenyl)pyrrolidin-2-one] | – | 100 to 500 nM | – | > 500 nM
22 | CN1CC[C@@](O)(c2cccc(-c3ccc(-c4c[nH]c5ncccc45)o3)c2)C1=O [Example 114, (R)-3-(3-(5-(1H-Pyrrolo[2,3-b]pyridin-3-yl)furan-2-yl)phenyl)-3-hydroxy-1-methylpyrrolidin-2-one] | – | ≤ 100 nM | – | 100 to 500 nM
